Test results taken from PMC6934184, “Selective DNA-PKcs inhibition extends the therapeutic index of localized radiotherapy and chemotherapy” (The Journal of Clinical Investigation, 2019).

Target: T1, DDR2 T654M (Homo sapiens, UniProt Q16832, T654M)
T1 construct: purchased Thermo Fisher Scientific (Life Technologies) SelectScreen
Assay: SelectScreen LanthaScreen
Type: binding
Settings: read-out: % displacement
How it was run: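 Percent values come from Thermo SelectScreen profiling of NU5455, combining activity and binding assays. CSF1R was run in Z'LYTE format at Km app ATP, and CAMK1 in Adapta format with ATP listed at 10.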

T1 sequence (Q16832 22-855 T654M): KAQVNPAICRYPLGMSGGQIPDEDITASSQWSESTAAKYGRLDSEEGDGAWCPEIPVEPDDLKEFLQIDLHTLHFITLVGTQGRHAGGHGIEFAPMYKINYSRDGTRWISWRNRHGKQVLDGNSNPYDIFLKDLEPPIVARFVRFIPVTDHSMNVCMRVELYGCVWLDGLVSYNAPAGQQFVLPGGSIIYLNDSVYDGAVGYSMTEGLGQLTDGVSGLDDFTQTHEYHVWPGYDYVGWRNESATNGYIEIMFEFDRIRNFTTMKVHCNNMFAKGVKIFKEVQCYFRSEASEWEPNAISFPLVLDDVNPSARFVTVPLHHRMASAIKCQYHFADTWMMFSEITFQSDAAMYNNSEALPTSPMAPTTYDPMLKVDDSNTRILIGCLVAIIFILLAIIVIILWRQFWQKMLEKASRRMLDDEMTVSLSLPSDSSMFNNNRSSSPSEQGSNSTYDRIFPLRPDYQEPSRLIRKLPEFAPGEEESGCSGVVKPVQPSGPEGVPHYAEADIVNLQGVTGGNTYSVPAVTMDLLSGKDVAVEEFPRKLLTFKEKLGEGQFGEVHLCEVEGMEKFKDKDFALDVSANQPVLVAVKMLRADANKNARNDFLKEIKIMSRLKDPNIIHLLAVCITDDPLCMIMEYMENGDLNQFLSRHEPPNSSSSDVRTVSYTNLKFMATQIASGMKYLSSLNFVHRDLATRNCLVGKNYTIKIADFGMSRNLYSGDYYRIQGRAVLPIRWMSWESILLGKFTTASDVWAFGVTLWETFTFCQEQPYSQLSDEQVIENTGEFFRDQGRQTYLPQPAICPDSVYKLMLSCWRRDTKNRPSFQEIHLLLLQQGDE

## CN(C(=O)CN1CCOCC1)c1ccc2sc3c(-c4cccc5c(=O)cc(N6CC7CCC(C6)O7)oc45)cccc3c2c1 [NU5455]
  inhibition at 1 µM: 2.5%
